According to patent US20200362309A1, “Method for preparing BAP or BA cells” (Anagenesis Biotechnologies S.A.S., priority 2017, published 2020):

Tested on: BA cells differentiated from hiPS-derived BAP
Experiment: Lipolysis: free glycerol release by BA cells after forskolin stimulation
Assay type: cell-based, human
Settings: forskolin 10 μM, 24 hours; BAP derived at day 12 or 16, 5 passages, differentiated for 17 days
Procedure: Lipolysis: The BAP were differentiated for 17 days. Then the cells were maintained for 24 hours in DMEM 1g/Iglucose supplemented with BSA 0,2%. Lipolysis was stimulated with forskolin (10 μM) for 24 hours.

`C=C[C@@]1(C)CC(=O)[C@]2(O)[C@@]3(C)[C@@H](O)CCC(C)(C)[C@@H]3[C@H](O)[C@H](OC(C)=O)[C@@]2(C)O1` [forskolin] was tested, and the “increase of the free glycerol released, treated cells compared to untreated cells” value was “about 60%”.
